Laboratory results: US20230167088A1, “1-PYRAZINYLPYRAZOLYL-3-OXYALKYL ACIDS AND THEIR DERIVATIVES, AND THEIR USE FOR CONTROL OF UNDESIRED PLANT GROWTH” (BAYER AKTIENGESELLSCHAFT, priority 2020, published 2023)

Assays:
[1] = tested on: ECHCG; assay: Herbicidal post-emergence action 1b (twin sowing, 1280 g/ha); type: in vivo, Echinochloa crus-galli; details: dosage 1280 g/ha, visual rating about 3 weeks after treatment
Summary of the method: (§1)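 Visual % activity vs untreated controls, ~3 wk after treatment (100% = dead, 0% = like control). Plants: one mono- plus one dicot weed species per pot, sandy loam, greenhouse; sprayed at one-leaf stage (2–3 wk post-sowing). Aqueous WP/EC, 0.5% additive, 600 L/ha water.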

[2] = tested on: DIGSA; assay: as above; type: in vivo, Digitaria sanguinalis; details: dosage 1280 g/ha, visual rating about 3 weeks after treatment
Summary of the method: as §1

[3] = tested on: POAAN; assay: Herbicidal pre-emergence action 2b (doubly sown, 1280 g/ha); type: in vivo, Poa annua; details: doubly sown pots, dosage 1280 g/ha, visual scoring after about 3 weeks
Summary of the method: (§2)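 Pre-emergence soil-surface spray (WP/EC formulation, 0.5% additive, 600 L/ha water) onto covered seeds in sandy loam, doubly sown per pot. Greenhouse ~3 wk; % effect scored visually against untreated pots.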

[4] = tested on: STEME; assay: as above; type: in vivo, Stellaria media; details: doubly sown pots, dosage 1280 g/ha, visual scoring after about 3 weeks
Summary of the method: as §2

[5] = tested on: PHBPU; assay: Herbicidal post-emergence action 1a (greenhouse pots, visual rating); type: in vivo, Pharbitis purpurea; details: dosage 80 g/ha, visual rating about 3 weeks after treatment
Experimental: (§3) [table] a) Seeds of monocotyledonous and dicotyledonous weeds and crop plants are placed in sandy loam in plastic or organic plant pots, covered with soil and cultivated in a greenhouse under controlled growth conditions. 2 to 3 weeks after sowing, the test plants are treated at the one-leaf stage. The compounds of the invention, formulated in the form of wettable powders (WP) or as emulsion concentrates (EC), are then sprayed onto the green parts of the plants as aqueous suspension or emulsion with addition of 0.5% additive at a water application rate of 600 1/ha (converted). After the test plants have been kept in the greenhouse under optimum growth conditions for about 3 weeks, the activity of the preparations is rated visually in comparison to untreated controls. For example, 100% activity=the plants have died, 0% activity=like control plants. Tables A1 to A15 below show the effects of selected compounds of the general formula (I) according to Tables 1 and 2 on various harmful plants and an application rate corresponding to 320 g/ha and/or 80 g/ha, which were obtained by the experimental procedure mentioned above.

[6] = tested on: AMARE; assay: Herbicidal pre-emergence action 2a (greenhouse pots, visual scoring); type: in vivo, Amaranthus retroflexus; details: visual scoring after about 3 weeks vs untreated controls
Summary of the method: (§4)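 Percent effect (0% like control, 100% plants died) was scored by eye roughly 3 weeks post-application. Formulated compound went onto the soil covering freshly sown seeds in water at 600 l/ha with 0.5% additive; dose 320 g/ha and/or 80 g/ha.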

[7] = tested on: AMARE; assay: Herbicidal pre-emergence action 2b (doubly sown, 1280 g/ha); type: in vivo, Amaranthus retroflexus; details: doubly sown pots, dosage 1280 g/ha, visual scoring after about 3 weeks
Summary of the method: as §2

[8] = tested on: STEME; assay: Herbicidal post-emergence action 1b (twin sowing, 1280 g/ha); type: in vivo, Stellaria media; details: dosage 1280 g/ha, visual rating about 3 weeks after treatment
Summary of the method: as §1

[9] = tested on: DIGSA; assay: Herbicidal pre-emergence action 2a (greenhouse pots, visual scoring); type: in vivo, Digitaria sanguinalis; details: dosage 80 g/ha, visual scoring after about 3 weeks
Text: (§5) [table] a) Seeds of monocotyledonous and dicotyledonous weed plants and crop plants are placed in plastic or organic plant pots and covered with soil. The compounds of the invention, formulated in the form of wettable powders (WP) or as emulsion concentrates (EC), are then applied onto the surface of the covering soil as aqueous suspension or emulsion with addition of 0.5% additive at a water application rate of 600 1/ha (converted). After the treatment, the pots are placed in a greenhouse and kept under good growth conditions for the trial plants. After about 3 weeks, the effect of the preparations is scored visually in comparison with untreated controls as percentages. For example, 100% activity=the plants have died, 0% activity=like control plants. Tables B1 to B15 below show the effects of selected compounds of the general formula (I) according to Tables 1 and 2 on various harmful plants and an application rate corresponding to 320 g/ha and/or 80 g/ha, which were obtained by the experimental procedure mentioned above.

[10] = tested on: AMARE; assay: Herbicidal post-emergence action 1a (greenhouse pots, visual rating); type: in vivo, Amaranthus retroflexus; details: dosage 80 g/ha, visual rating about 3 weeks after treatment
Summary of the method: (§6)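 Visual scoring versus untreated plants (100% = plants dead, 0% = as control) followed roughly 3 weeks in the greenhouse after treatment. Plants grown in sandy loam pots had been sprayed on green parts at the one-leaf stage, 2–3 weeks post-sowing, with aqueous WP/EC preparations containing 0.5% additive, 600 l/ha, at 320 and/or 80 g/ha.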

[11] = tested on: ALOMY; assay: as above; type: in vivo, Alopecurus myosuroides; details: Dosage 80 g/ha; rated visually about 3 weeks after treatment; 100% = plants have died, 0% = like control plants
Summary of the method: as §6

[12] = tested on: DIGSA; assay: as above; type: in vivo, Digitaria sanguinalis; details: Dosage 80 g/ha; rated visually about 3 weeks after treatment; 100% = plants have died, 0% = like control plants
Experimental: as §3

[13] = tested on: MATIN; assay: Herbicidal post-emergence action 1b (twin sowing, 1280 g/ha); type: in vivo, Matricaria inodora; details: dosage 1280 g/ha, visual rating about 3 weeks after treatment
Summary of the method: as §1

[14] = tested on: MATIN; assay: Herbicidal pre-emergence action 2b (doubly sown, 1280 g/ha); type: in vivo, Matricaria inodora; details: doubly sown pots, dosage 1280 g/ha, visual scoring after about 3 weeks
Summary of the method: as §2

[15] = tested on: DIGSA; assay: as above; type: in vivo, Digitaria sanguinalis; details: doubly sown pots, dosage 1280 g/ha, visual scoring after about 3 weeks
Summary of the method: as §2

[16] = tested on: ABUTH; assay: Herbicidal post-emergence action 1b (twin sowing, 1280 g/ha); type: in vivo, Abutilon theophrasti; details: dosage 1280 g/ha, visual rating about 3 weeks after treatment
Experimental: [table] b) Seeds of mono- and dicotyledonous weed plants are placed in plastic pots in sandy loam soil (twin sowing with one species each of mono- or dicotyledonous weed plants per pot), covered with soil and cultivated in a greenhouse under controlled growth conditions. 2 to 3 weeks after sowing, the test plants are treated at the one-leaf stage. The compounds of the invention, formulated in the form of wettable powders (WP) or as emulsion concentrates (EC), are applied to the green parts of the plants as aqueous suspension or emulsion with addition of 0.5% additive at a water application rate equivalent to 600 litres per hectare. After the test plants have been kept in the greenhouse under optimum growth conditions for about 3 weeks, the activity of the preparations is rated visually in comparison to untreated controls. For example, 100% activity=the plants have died, 0% activity=like control plants. Tables A16 to A21 below show the effects of selected compounds of the general formula (I) according to Tables 1 and 2 on various harmful plants and at an application rate corresponding to 1280 g/ha, which were obtained by the experimental procedure mentioned above.

[17] = tested on: POAAN; assay: as above; type: in vivo, Poa annua; details: dosage 1280 g/ha, visual rating about 3 weeks after treatment
Summary of the method: as §1

[18] = tested on: ECHCG; assay: Herbicidal pre-emergence action 2b (doubly sown, 1280 g/ha); type: in vivo, Echinochloa crus-galli; details: doubly sown pots, dosage 1280 g/ha, visual scoring after about 3 weeks
Summary of the method: as §2

[19] = tested on: MATIN; assay: Herbicidal pre-emergence action 2a (greenhouse pots, visual scoring); type: in vivo, Matricaria inodora; details: dosage 320 g/ha, visual scoring after about 3 weeks vs untreated controls
Text: as §5

[20] = tested on: SETVI; assay: as above; type: in vivo, Setaria viridis; details: dosage 320 g/ha, visual scoring after about 3 weeks vs untreated controls
Summary of the method: as §4

[21] = tested on: VIOTR; assay: as above; type: in vivo, Viola tricolor; details: dosage 320 g/ha, visual scoring after about 3 weeks vs untreated controls
Summary of the method: as §4

[22] = tested on: LOLRI; assay: as above; type: in vivo, Lolium rigidum; details: dosage 320 g/ha, visual scoring after about 3 weeks vs untreated controls
Summary of the method: as §4

[23] = tested on: VIOTR; assay: Herbicidal post-emergence action 1a (greenhouse pots, visual rating); type: in vivo, Viola tricolor; details: dosage 80 g/ha, visual rating about 3 weeks after treatment
Summary of the method: as §6

[24] = tested on: VERPE; assay: as above; type: in vivo, Veronica persica; details: dosage 80 g/ha, visual rating about 3 weeks after treatment
Summary of the method: as §6

[25] = tested on: ALOMY; assay: Herbicidal pre-emergence action 2a (greenhouse pots, visual scoring); type: in vivo, Alopecurus myosuroides; details: dosage 320 g/ha, visual scoring after about 3 weeks
Summary of the method: as §4

[26] = tested on: VERPE; assay: as above; type: in vivo, Veronica persica; details: dosage 320 g/ha, visual scoring after about 3 weeks vs untreated controls
Summary of the method: as §4

CC(Oc1nn(-c2cnccn2)c(-c2ccc(F)c(F)c2)c1Br)C(=O)O (stereo not shown) [Example I-47]
Post-emergence action at 1280 g/ha against ECHCG in % [1]: 100%
Post-emergence action at 1280 g/ha against DIGSA in % [2]: 100%
Pre-emergence action at 1280 g/ha against POAAN in % [3]: 100%
Pre-emergence action at 1280 g/ha against STEME in % [4]: 100%
Post-emergence action against PHBPU in % [5]: 80%
Pre-emergence action against AMARE in % ([6]; dosage 80 g/ha): 90%
Pre-emergence action at 1280 g/ha against AMARE in % [7]: 100%
Post-emergence action at 1280 g/ha against STEME in % [8]: 100%
Pre-emergence action against DIGSA in % [9]: 100%
Post-emergence action against AMARE in % [10]: 80%
Post-emergence action against ALOMY in % [11]: 90%
Post-emergence action against DIGSA in % [12]: 80%
Post-emergence action at 1280 g/ha against MATIN in % [13]: 90%
Pre-emergence action at 1280 g/ha against MATIN in % [14]: 100%
Pre-emergence action at 1280 g/ha against DIGSA in % [15]: 100%
Post-emergence action at 1280 g/ha against ABUTH in % [16]: 90%
Post-emergence action at 1280 g/ha against POAAN in % [17]: 100%
Pre-emergence action at 1280 g/ha against ECHCG in % [18]: 100%

N#CCOC(=O)COc1nn(-c2cnccn2)c(-c2ccc(F)nc2)c1Br [Example I-65]
Pre-emergence action against MATIN in % [19]: 90%
Pre-emergence action against SETVI in % [20]: 100%
Post-emergence action at 1280 g/ha against ECHCG in % [1]: 90%
Pre-emergence action against VIOTR in % [21]: 90%
Post-emergence action at 1280 g/ha against DIGSA in % [2]: 100%
Pre-emergence action against LOLRI in % [22]: 80%
Post-emergence action against VIOTR in % [23]: 80%
Pre-emergence action at 1280 g/ha against POAAN in % [3]: 100%
Pre-emergence action at 1280 g/ha against STEME in % [4]: 100%
Pre-emergence action against AMARE in % ([6]; dosage 320 g/ha): 100%
Post-emergence action against VERPE in % [24]: 80%
Pre-emergence action at 1280 g/ha against AMARE in % [7]: 100%
Post-emergence action at 1280 g/ha against STEME in % [8]: 90%
Pre-emergence action against ALOMY in % [25]: 90%
Pre-emergence action against VERPE in % [26]: 90%
Post-emergence action against ALOMY in % [11]: 80%
Post-emergence action at 1280 g/ha against MATIN in % [13]: 100%
Pre-emergence action at 1280 g/ha against MATIN in % [14]: 100%
Pre-emergence action at 1280 g/ha against DIGSA in % [15]: 100%
Post-emergence action at 1280 g/ha against ABUTH in % [16]: 90%
Post-emergence action at 1280 g/ha against POAAN in % [17]: 100%
Pre-emergence action at 1280 g/ha against ECHCG in % [18]: 100%
